The values below are quoted from earlier work in patent publication US20210388441A1, “PREDICTING CHRONIC ALLOGRAFT INJURY THROUGH ISCHEMIA-INDUCED DNA METHYLATION” (VIB VZW, priority 2017, published 2021).

The subject of this data set is macrophage infiltration in kidneys. The settings on record: through a decrease of macrophage infiltration in for instance kidneys.

Regarding `CC(=O)C(C)CCC(=O)O` (stereo not shown) [ERG240], the inflammation result is given as “reduced inflammation”.
